13 molecules from ChEMBL document CHEMBL3045122, “Synthesis, in vitro antimicrobial, antiproliferative, and QSAR studies of N-(substituted phenyl)-2/4-(1H-indol-3-ylazo)-benzamides” (Med Chem Res, 2013) can be followed below.

The subject of assay [1] is Bacillus subtilis. The experiment in a line: Ratio of MBC to MIC for Bacillus subtilis. Format: functional.
For a further assay, the system named is HCT-116. Nature of the assay: Cytotoxicity against Homo sapiens (human) HCT116 cells assessed as growth inhibition after 72 hr by MTT assay. In kind it is functional, cell-based.
The subject of assay [2] is Escherichia coli. The experiment in a line: Ratio of MBC to MIC for Escherichia coli. Format: functional.
The subject of assay [3] is Aspergillus niger. Nature of the assay: Antifungal activity against Aspergillus niger assessed as growth inhibition after 7 days by tube dilution method. In kind it is functional.
In the next assay the test system is MCF7. The experiment in a line: Cytotoxicity against Homo sapiens (human) MCF7 cells assessed as growth inhibition after 72 hr by MTT assay. In kind it is functional, cell-based.
The test system of assay [4] is Staphylococcus aureus. Nature of the assay: Antibacterial activity against Staphylococcus aureus assessed as growth inhibition after 24 hr by tube dilution method. In kind it is functional.
For assay [5], the system named is Candida albicans. The experiment in a line: Ratio of MFC to MIC for Candida albicans. In kind it is functional.
Assay [6] relates to Escherichia coli. Nature of the assay: Bactericidal activity against Escherichia coli. In kind it is functional.
The subject of assay [7] is Escherichia coli. Nature of the assay: Antibacterial activity against Escherichia coli assessed as growth inhibition after 24 hr by tube dilution method. Format: functional.
Assay [8] relates to Bacillus subtilis. The experiment in a line: Antibacterial activity against Bacillus subtilis assessed as growth inhibition after 24 hr by tube dilution method. Format: functional.
Assay [9] concerns Aspergillus niger. Nature of the assay: Fungicidal activity against Aspergillus niger. Format: functional.
In assay [10] the test system is Bacillus subtilis. Nature of the assay: Bactericidal activity against Bacillus subtilis. Format: functional.
Assay [11] has as its system Candida albicans. Nature of the assay: Fungicidal activity against Candida albicans. In kind it is functional.
For assay [12], the system named is Aspergillus niger. Nature of the assay: Ratio of MFC to MIC for Aspergillus niger. Format: functional.
In assay [13] the test system is Staphylococcus aureus. Nature of the assay: Ratio of MBC to MIC for Staphylococcus aureus. In kind it is functional.
Assay [14] relates to Staphylococcus aureus. Nature of the assay: Bactericidal activity against Staphylococcus aureus. Format: functional.
Assay [15] deals with Candida albicans. Nature of the assay: Antifungal activity against Candida albicans assessed as growth inhibition after 48 hr by tube dilution method. In kind it is functional.

Consider `O=C(Nc1ccccc1Cl)c1ccccc1/N=N\c1c[nH]c2ccccc12`, for which the Ratio with Bacillus subtilis [1], in the assay with Escherichia coli [2], in the assay with Candida albicans [5], with Aspergillus niger [12] and in the assay with Staphylococcus aureus [13] was 3 throughout. Also, the IC50 is 0.24 uM/ml with HCT-116 and 0.1067 uM/ml in the assay on MCF7. Also, the “-logMIC” value in the assay with Aspergillus niger [3] was 1.48; in the assay with Staphylococcus aureus [4], 1.18; with Escherichia coli [7] it was 1.48; with Bacillus subtilis [8] it was 1.48; in the assay on Candida albicans [15], 1.48. In addition, the MBC in the assay with Escherichia coli [6], against Bacillus subtilis [10] and against Staphylococcus aureus [14] was greater than 0.13 uM/ml each time. Moreover, the MFC is 0.03 uM/ml against Aspergillus niger [9] and greater than 0.13 uM/ml against Candida albicans [11].

As to `O=C(Nc1cccc(Cl)c1)c1ccccc1/N=N\c1c[nH]c2ccccc12`, the Ratio in the assay with Bacillus subtilis [1], in the assay on Escherichia coli [2], in the assay with Candida albicans [5], in the assay with Aspergillus niger [12] and with Staphylococcus aureus [13] was 3 each time. Besides, the IC50 in the assay with HCT-116 amounted to 0.2933 uM/ml; in the assay with MCF7, 0.1067 uM/ml. Further, the “-logMIC” value was found to be 1.48 with Aspergillus niger [3]; 1.18 with Staphylococcus aureus [4]; 1.78 in the assay on Escherichia coli [7]; 1.48 with Bacillus subtilis [8]; 1.48 in the assay on Candida albicans [15]. Further, the MBC in the assay on Escherichia coli [6], with Bacillus subtilis [10] and in the assay on Staphylococcus aureus [14] was greater than 0.13 uM/ml each time. Further, the MFC is 0.03 uM/ml against Aspergillus niger [9] and greater than 0.13 uM/ml in the assay on Candida albicans [11].

`O=C(Nc1ccc(Cl)cc1)c1ccccc1/N=N\c1c[nH]c2ccccc12`: the Ratio in the assay on Bacillus subtilis [1], with Escherichia coli [2], in the assay on Candida albicans [5], in the assay with Aspergillus niger [12] and in the assay on Staphylococcus aureus [13] was 3 in each case. The figures for the IC50 in the assay with HCT-116 and with MCF7 were 0.3467 uM/ml and 0.1067 uM/ml, respectively. Also, the “-logMIC” value was determined as 1.48 with Aspergillus niger [3]; 1.18 in the assay with Staphylococcus aureus [4]; 1.48 with Escherichia coli [7]; 1.48 with Bacillus subtilis [8]; 1.48 with Candida albicans [15]. Besides, the MBC in the assay with Escherichia coli [6], in the assay with Bacillus subtilis [10] and in the assay with Staphylococcus aureus [14] was greater than 0.13 uM/ml throughout. Further, the MFC is on record as 0.03 uM/ml against Aspergillus niger [9] and greater than 0.13 uM/ml against Candida albicans [11].

For `Cc1ccccc1NC(=O)c1ccccc1/N=N\c1c[nH]c2ccccc12`, the Ratio with Bacillus subtilis [1], in the assay on Escherichia coli [2], in the assay with Candida albicans [5], with Aspergillus niger [12] and in the assay with Staphylococcus aureus [13] was 3 each time. The IC50 in the assay on HCT-116 is 1.1299 uM/ml; with MCF7 it was 0.1412 uM/ml. In addition, the “-logMIC” value is recorded as 1.45 in the assay on Aspergillus niger [3]; 1.15 in the assay on Staphylococcus aureus [4]; 1.45 with Escherichia coli [7]; 1.45 in the assay with Bacillus subtilis [8]; 1.45 in the assay on Candida albicans [15]. Moreover, the MBC against Escherichia coli [6], with Bacillus subtilis [10] and against Staphylococcus aureus [14] was greater than 0.14 uM/ml in each case. Further, the MFC is listed as 0.04 uM/ml against Aspergillus niger [9] and greater than 0.14 uM/ml in the assay with Candida albicans [11].

For `O=C(Nc1ccccc1)c1ccccc1/N=N\c1c[nH]c2ccccc12`, the Ratio in the assay on Bacillus subtilis [1], in the assay with Escherichia coli [2], in the assay with Candida albicans [5], in the assay on Aspergillus niger [12] and with Staphylococcus aureus [13] was 3 throughout. Also, the IC50 in the assay with HCT-116 stood at 0.2353 uM/ml; with MCF7 it was 0.0882 uM/ml. Moreover, the “-logMIC” value with Aspergillus niger [3] amounted to 1.44; in the assay on Staphylococcus aureus [4], 1.13; in the assay with Escherichia coli [7], 1.74; in the assay on Bacillus subtilis [8], 1.74; in the assay with Candida albicans [15], 1.44. Besides, the MBC against Escherichia coli [6], in the assay on Bacillus subtilis [10] and against Staphylococcus aureus [14] was greater than 0.15 uM/ml in each case. In addition, the values for the MFC in the assay with Aspergillus niger [9] and against Candida albicans [11] were 0.04 uM/ml and greater than 0.15 uM/ml, respectively.

For `Cc1ccc(NC(=O)c2ccccc2/N=N\c2c[nH]c3ccccc23)c(C)c1`, the Ratio with Bacillus subtilis [1], in the assay on Escherichia coli [2], in the assay on Candida albicans [5], in the assay with Aspergillus niger [12] and in the assay with Staphylococcus aureus [13] was 3 in each case. In addition, the IC50 in the assay with HCT-116 is listed as 0.0815 uM/ml; in the assay with MCF7 it was 0.1087 uM/ml. The “-logMIC” value in the assay on Aspergillus niger [3] is given as 1.47; in the assay with Staphylococcus aureus [4] it was 1.17; in the assay with Escherichia coli [7], 1.47; in the assay on Bacillus subtilis [8] it was 1.47; with Candida albicans [15], 1.47. Moreover, the MBC in the assay with Escherichia coli [6], against Bacillus subtilis [10] and with Staphylococcus aureus [14] was greater than 0.14 uM/ml each time. Also, the MFC in the assay with Aspergillus niger [9] is listed as 0.03 uM/ml; against Candida albicans [11], greater than 0.14 uM/ml.

As for `Cc1cccc(NC(=O)c2ccccc2/N=N\c2c[nH]c3ccccc23)c1`, the Ratio in the assay with Bacillus subtilis [1], with Escherichia coli [2], in the assay with Candida albicans [5], in the assay on Aspergillus niger [12] and in the assay with Staphylococcus aureus [13] was 3 in each case. Also, the IC50 in the assay on HCT-116 is on record as 0.1695 uM/ml; in the assay on MCF7 it was 0.1271 uM/ml. Further, the “-logMIC” value with Aspergillus niger [3] is reported as 1.45; with Staphylococcus aureus [4], 1.45; in the assay with Escherichia coli [7], 1.75; in the assay on Bacillus subtilis [8], 1.75; with Candida albicans [15], 1.45. Further, the MBC in the assay with Escherichia coli [6], in the assay on Bacillus subtilis [10] and against Staphylococcus aureus [14] was greater than 0.14 uM/ml each time. Besides, the MFC was 0.04 uM/ml with Aspergillus niger [9] and greater than 0.14 uM/ml in the assay on Candida albicans [11].

As for `Cc1ccc(NC(=O)c2ccccc2/N=N\c2c[nH]c3ccccc23)cc1`, the Ratio in the assay on Bacillus subtilis [1], in the assay on Escherichia coli [2], in the assay with Candida albicans [5], in the assay on Aspergillus niger [12] and in the assay with Staphylococcus aureus [13] was 3 in each case. The IC50 in the assay with HCT-116 was determined as 0.452 uM/ml; in the assay with MCF7 it was 0.0791 uM/ml. For the same molecule, the “-logMIC” value worked out at 1.45 with Aspergillus niger [3]; 1.15 in the assay with Staphylococcus aureus [4]; 1.45 in the assay on Escherichia coli [7]; 1.45 in the assay with Bacillus subtilis [8]; 1.45 in the assay on Candida albicans [15]. Also, the MBC in the assay with Escherichia coli [6], in the assay with Bacillus subtilis [10] and with Staphylococcus aureus [14] was greater than 0.14 uM/ml in each case. For the same molecule, the MFC against Aspergillus niger [9] was 0.04 uM/ml; in the assay with Candida albicans [11] it was greater than 0.14 uM/ml.

With `Cc1cccc(NC(=O)c2ccccc2/N=N\c2c[nH]c3ccccc23)c1C`, the Ratio with Bacillus subtilis [1], in the assay on Escherichia coli [2], in the assay with Candida albicans [5], in the assay with Aspergillus niger [12] and with Staphylococcus aureus [13] was 3 each time. The IC50 in the assay with HCT-116 is reported as 0.3533 uM/ml; in the assay with MCF7 it was 0.1087 uM/ml. Moreover, the “-logMIC” value was found to be 1.47 in the assay on Aspergillus niger [3]; 1.17 with Staphylococcus aureus [4]; 1.77 in the assay on Escherichia coli [7]; 1.47 in the assay with Bacillus subtilis [8]; 1.47 in the assay with Candida albicans [15]. The MBC against Escherichia coli [6], against Bacillus subtilis [10] and in the assay on Staphylococcus aureus [14] was greater than 0.14 uM/ml each time. Moreover, the values for the MFC in the assay on Aspergillus niger [9] and against Candida albicans [11] were 0.03 uM/ml and greater than 0.14 uM/ml, respectively.

In the case of `Cc1ccc(C)c(NC(=O)c2ccccc2/N=N\c2c[nH]c3ccccc23)c1`, the Ratio in the assay on Bacillus subtilis [1], in the assay with Escherichia coli [2], in the assay on Candida albicans [5], in the assay on Aspergillus niger [12] and in the assay with Staphylococcus aureus [13] was 3 each time. The results for the IC50 with HCT-116 and in the assay on MCF7 were 0.163 uM/ml and 0.1087 uM/ml, respectively. Moreover, the “-logMIC” value in the assay on Aspergillus niger [3] is given as 1.47; with Staphylococcus aureus [4], 1.17; in the assay with Escherichia coli [7] it was 1.47; with Bacillus subtilis [8], 1.77; with Candida albicans [15], 1.47. The MBC against Escherichia coli [6], against Bacillus subtilis [10] and in the assay with Staphylococcus aureus [14] was greater than 0.14 uM/ml in each case. The figures for the MFC in the assay on Aspergillus niger [9] and in the assay on Candida albicans [11] were 0.03 uM/ml and greater than 0.14 uM/ml, respectively.

For `O=C(Nc1ccccc1F)c1ccccc1/N=N\c1c[nH]c2ccccc12`, the Ratio in the assay on Bacillus subtilis [1], in the assay on Escherichia coli [2], with Candida albicans [5], with Aspergillus niger [12] and in the assay with Staphylococcus aureus [13] was 3 throughout. Further, the IC50 is 0.2235 uM/ml with HCT-116 and 0.1397 uM/ml in the assay on MCF7. Further, the “-logMIC” value worked out at 1.46 in the assay with Aspergillus niger [3]; 1.16 in the assay on Staphylococcus aureus [4]; 1.76 in the assay with Escherichia coli [7]; 1.46 in the assay with Bacillus subtilis [8]; 1.46 with Candida albicans [15]. Further, the MBC in the assay on Escherichia coli [6], in the assay on Bacillus subtilis [10] and against Staphylococcus aureus [14] was greater than 0.14 uM/ml throughout. The results for the MFC against Aspergillus niger [9] and against Candida albicans [11] were 0.03 uM/ml and greater than 0.14 uM/ml, respectively.

With `OC(Cn1cncn1)(Cn1cncn1)c1ccc(F)cc1F` [FLUCONAZOLE], the “-logMIC” value in the assay with Aspergillus niger [3] and in the assay with Candida albicans [15] was 2.64 in each case. Besides, the Ratio with Candida albicans [5] and in the assay on Aspergillus niger [12] was 3 in each case. Moreover, the MFC against Aspergillus niger [9] and in the assay on Candida albicans [11] was 0.04 uM/ml in each case.

Turning to `CCn1cc(C(=O)O)c(=O)c2cc(F)c(N3CCNCC3)cc21` [NORFLOXACIN], the Ratio in the assay with Bacillus subtilis [1], with Escherichia coli [2] and in the assay on Staphylococcus aureus [13] was 3 each time. Besides, the “-logMIC” value in the assay with Staphylococcus aureus [4], in the assay with Escherichia coli [7] and with Bacillus subtilis [8] was 2.61 throughout. Also, the MBC against Escherichia coli [6], in the assay on Bacillus subtilis [10] and against Staphylococcus aureus [14] was 0.019 uM/ml throughout.
